From patent US9376391B2, “Difluoromethyl-nicotinic-tetrahydronaphthyl carboxamides as fungicides” (BAYER CROPSCIENCE AKTIENGESELLSCHAFT, priority 2012, dated 2016)

Assays:
Botrytis cinerea = test: In vivo preventive test on Botrytis cinerea (grey mould), gherkin plants; settings: for Eff. %: gherkin, spray, graded 4 to 5 days after contamination vs control plants
Method: In Vivo Preventive Test on Botrytis cinerea (Grey Mould)
(§1) The active ingredients tested are prepared by homogenization in a mixture of acetone/tween/DMSO and then diluted with water to obtain the desired active material concentration.
(§2) Gherkin plants (“Vert petit de Paris” variety), sown in starter cups on a 50/50 peat soil-pozzolana substrate and grown at 24° C., are treated at the Z11 cotyledon stage by spraying with the active ingredient prepared as described above. Plants, used as controls, are treated with the mixture of acetone/tween/DMSO/water not containing the active material.
After 24 hours, the plants are contaminated by spraying the cotyledons with an aqueous suspension of cryopreserved Botrytis cinerea spores (50 000 spores per ml). The spores are suspended in a nutrient solution composed of 10 g/L of PDB, 50 g/L of D-Fructose, 2 g/L of NH4NO3 and 1 g/L of KH2PO4. The contaminated gherkin plants are incubated at 17° C. and at 90% relative humidity.
Grading (% of efficacy) is carried out 4 to 5 days after the contamination, in comparison with the control plants.

Septoria tritici = test: In vivo preventive test on Septoria tritici (leaf spot on wheat); settings: preventive spray, wheat plants, grading 24 days after contamination
Method: In Vivo Preventive Test on Septoria tritici (Leaf Spot on Wheat)
(§3) The active ingredients tested are prepared by homogenization in a mixture of acetone/tween/DMSO, and then diluted with water to obtain the desired active material concentration.
Wheat plants (“Scipion” variety), sown in starter cups on a 50/50 peat soil-pozzolana substrate and grown at 22° C., are treated at the 1-leaf stage (10 cm height) by spraying with the active ingredient prepared as described above. Plants, used as controls, are treated with the mixture of acetone/tween/DMSO/water not containing the active material.
After 24 hours, the plants are contaminated by spraying the leaves with an aqueous suspension of cryopreserved Septoria tritici spores (500 000 spores per ml). The contaminated wheat plants are incubated for 72 hours at 18° C. and at 100% relative humidity, and then for 21 days at 90% relative humidity.
Grading (% of efficacy) is carried out 24 days after the contamination, in comparison with the control plants.

Uromyces appendiculatus = test: In vivo preventive test on Uromyces appendiculatus (bean rust); settings: preventive spray, bean plants, grading 11 days after contamination
In short: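 'Saxa' bean plants at the 2-leaf stage were sprayed with compound and inoculated 24 h later with U. appendiculatus spores (150 000 spores per ml). Plants were incubated 24 h at 20 °C and 100% RH, then 10 days at 20 °C and 70–80% RH. Percent efficacy versus solvent-treated controls was graded 11 days post-inoculation.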

Sphaerotheca fuliginea = test: In vivo preventive test on Sphaerotheca fuliginea (powdery mildew on cucurbits); settings: for Eff. %: preventive spray
Method: In Vivo Preventive Test on Sphaerotheca fuliginea (Powdery Mildew on Cucurbits)
as §1, §2
After 24 hours, the plants are contaminated by spraying the cotyledons with an aqueous suspension of Sphaerotheca fuliginea spores (100 000 spores per ml). The spores are collected from infected plants. The contaminated gherkin plants are incubated at about 20° C. and at 70-80% relative humidity.
Grading (% of efficacy) is carried out 12 days after the contamination, in comparison with the control plants.

Puccinia recondita = test: In vivo preventive test on Puccinia recondita (brown rust on wheat); settings: for Eff. %: wheat, spray, graded 12 days after contamination vs control plants
In short: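 Wheat seedlings ("Scipion") sprayed with compound at the 1-leaf stage, inoculated 24 h later with Puccinia recondita spores (100 000 spores per ml). Incubated 24 h at 20° C and 100% RH, then 10 days at 20° C and 70-80% RH. Efficacy (%) versus solvent-treated controls graded 12 days after contamination.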

[1] = log P by HPLC on reversed phase columns (EEC directive 79/831 Annex V.A8); type: physicochemical; settings: Table 1, formula (I); HPLC/LC-MS at pH 2.7, 0.1% formic acid in water / acetonitrile, gradient 10% to 95%
Pyrenophora teres = test: In vivo preventive test on Pyrenophora teres (net blotch on barley); settings: for Eff. %: barley, spray, graded 14 days after contamination vs control plants
Method: In Vivo Preventive Test on Pyrenophora teres (Net Blotch on Barley)
as §3
Barley plants (“Plaisant” variety), sown in starter cups on a 50/50 peat soil-pozzolana substrate and grown at 22° C., are treated at the 1-leaf stage (10 cm height) by spraying with the active ingredient prepared as described above. Plants, used as controls, are treated with the mixture of acetone/tween/DMSO/water not containing the active material.
After 24 hours, the plants are contaminated by spraying the leaves with an aqueous suspension of Pyrenophora teres spores (12 000 spores per ml). The spores are collected from a 12-day-old culture. The contaminated barley plants are incubated for 48 hours at 20° C. and at 100% relative humidity, and then for 12 days at 20° C. at 70-80% relative humidity.
Grading (% of efficacy) is carried out 14 days after the contamination, in comparison with the control plants. plants.

Phakopsora pachyrhizi = test: Phakopsora test (soybeans)/preventive; type: in vivo; settings: evaluated 7 days after inoculation
Method: Phakopsora Test (Soybeans)/Preventive
To produce a suitable preparation of active compound, 1 part by weight of active compound is mixed with the stated amounts of solvent and emulsifier, and the concentrate is diluted with water to the desired concentration.
To test for preventive activity, young plants are sprayed with the preparation of active compound at the stated rate of application. After the spray coating has dried on, the plants are inoculated with an aqueous spore suspension of the causal agent of soybean rust (Phakopsora pachyrhizi) and stay for 24 h without light in an incubation cabinet at approximately 24° C. and a relative atmospheric humidity of 95%.
The plants remain in the incubation cabinet at approximately 24° C. and a relative atmospheric humidity of approximately 80% and a day/night interval of 12 h.
The test is evaluated 7 days after the inoculation. 0% means an efficacy which corresponds to that of the untreated control, while an efficacy of 100% means that no disease is observed.

Alternaria brassicae = test: In vivo preventive test on Alternaria brassicae (leaf spot on radish); settings: spray, graded 6 days after contamination vs control plants
Method: In Vivo Preventive Test on Alternaria brassicae (Leaf Spot on Radish)
as §3
Radish plants (“Pernod Clair” variety), sown in starter cups on a 50/50 peat soil-pozzolana substrate and grown at 17° C., are treated at the cotyledon stage by spraying with the active ingredient prepared as described above. Plants, used as controls, are treated with the mixture of acetone/tween/DMSO/water not containing the active material.
After 24 hours, the plants are contaminated by spraying the cotyledons with an aqueous suspension of Alternaria brassicae spores (50 000 spores per ml). The spores are collected from a 15-day-old culture. The contaminated radish plants are incubated at 20° C. and at 100% relative humidity.
Grading (% of efficacy) is carried out 6 days after the contamination, in comparison with the control plants.

[2] = 100 ppm, gherkin plants, grading 12 days after contamination
[3] = 500 ppm, gherkin plants, grading 12 days after contamination
[4] = dose 100 ppm of active ingredient, comparison with known compounds
[5] = dose 100 ppm, comparison with known compounds, same conditions

SMILES	Eff. % (Botrytis cinerea; dose 100 ppm)	Eff. % (Septoria tritici; 100 ppm)	Eff. % (Uromyces appendiculatus; 100 ppm)	Eff. % (Sphaerotheca fuliginea; [2])	Eff. % (Puccinia recondita; dose 100 ppm)	logP^[a] [1]	Eff. % (Pyrenophora teres; dose 100 ppm)	Eff. % (Septoria tritici; 500 ppm)	Eff. % (Phakopsora pachyrhizi; 10 ppm of active ingredient)	Eff. % (Uromyces appendiculatus; 500 ppm)	Eff. % (Sphaerotheca fuliginea; [3])	Eff. % (Puccinia recondita; dose 500 ppm)	Eff. % (Pyrenophora teres; dose 500 ppm)	also measured
CC(C)C1Cc2c(NC(=S)c3cccnc3C(F)F)cccc2C1(C)C (stereo not shown) [Example 65]	100%	80%	100%	98%	98%	4.46^[a]	70%	–	–	–	–	–	–	–
CC1Cc2c(NC(=O)c3cccnc3C(F)F)cccc2C1(C)C (stereo not shown) [Example 14]	–	–	–	–	–	3.33^[a]	–	97%	100%	100%	98%	100%	92%	–
CC1OC(C)(C)c2cccc(NC(=O)c3cccnc3C(F)F)c21 (racemic) [Example 12]	–	–	–	–	–	2.11^[a]	–	96%	–	100%	–	100%	86%	Eff. % (Botrytis cinerea; dose 500 ppm): 100%
CC1CC(C)(C)c2cccc(NC(=O)c3ccccc3C(F)F)c21 (stereo not shown) [2-(difluoromethyl)-N-(1,1,3-trimethyl-2,3-dihydro-1H-inden-4-yl)benzamide, reference compound]	–	–	–	–	–	–	–	–	–	–	–	–	–	protection (in words) (Botrytis cinerea; [4]): no protection at all; Efficacy (Botrytis cinerea; [5]): 0%; protection (in words) (Sphaerotheca fuliginea; [4]): lower protection; Efficacy (Sphaerotheca fuliginea; dose 100 ppm, comparison with prior-art compounds, gherkin plants, grading 12 days after contamination): 0%; protection (in words) (Puccinia recondita; [4]): low protection; Efficacy (Puccinia recondita; [5]): 83%; protection (in words) (Pyrenophora teres; [4]): lower protection; Efficacy (Pyrenophora teres; [5]): 0%
CC(C)C1c2cccc(NC(=O)c3cccnc3C(F)F)c2CC1C (stereo not shown) [Example 27]	–	–	–	–	–	3.78^[a]	–	86%	–	100%	100%	100%	83%	Eff. % (Botrytis cinerea; dose 500 ppm): 100%
CC1CC(C)(C)c2cccc(NC(=S)c3cccnc3C(F)F)c21 (racemic) [Example 9]	–	–	–	–	–	3.74^[a]	–	98%	–	100%	100%	100%	86%	Eff. % (Phakopsora pachyrhizi; 100 ppm of active ingredient): 99%
CC(C)(C)CC1CCc2cccc(NC(=O)c3cccnc3C(F)F)c21 (stereo not shown) [Example 90]	80%	96%	100%	100%	98%	3.92^[a]	86%	–	–	–	–	–	–	Eff. % (Alternaria brassicae; dose 100 ppm): 93%
CC(C)C1Cc2c(NC(=O)c3cccnc3C(F)F)cccc2C1(C)C (racemic) [Example 43]	–	–	–	–	–	4.11^[a]	–	86%	98%	100%	100%	98%	–	Eff. % (Alternaria brassicae; dose 500 ppm): 100%
CC1CC(CC(C)(C)C)c2cccc(NC(=O)c3cccnc3C(F)F)c21 (stereo not shown) [Example 46]	–	–	–	–	–	4.39^[a]	–	71%	90%	100%	100%	98%	–	Eff. % (Botrytis cinerea; dose 500 ppm): 83%; Eff. % (Alternaria brassicae; dose 500 ppm): 98%
CCC1Cc2c(NC(=O)c3cccnc3C(F)F)cccc2C1(C)C (racemic) [Example 37]	–	–	–	–	–	3.78^[a]	–	97%	95%	100%	100%	100%	–	Eff. % (Alternaria brassicae; dose 500 ppm): 96%
CCC1(C)CC(C)c2c(NC(=O)c3cccnc3C(F)F)cccc21 (mixture of isomers) [Example 81]	100%	–	99%	94%	100%	3.64^[a]	–	–	100%	–	–	–	–	Eff. % (Alternaria brassicae; dose 100 ppm): 70%
CC(C)CC1CCc2cccc(NC(=O)c3cccnc3C(F)F)c21 (stereo not shown) [Example 84]	99%	100%	100%	100%	97%	3.62^[a]	75%	–	–	–	–	–	–	–
CC(C)C1OC(C)(C)c2cccc(NC(=O)c3cccnc3C(F)F)c21 (racemic) [Example 76]	98%	97%	96%	98%	94%	2.73^[a]	92%	–	–	–	–	–	–	Eff. % (Alternaria brassicae; dose 100 ppm): 75%
